# From patent EP0302626A2, “Insecticidal compounds” (IMPERIAL CHEMICAL INDUSTRIES PLC, priority 1987, dated 1989)
# Values joined by “and” are separate entries in the source; they are usually repeats but may differ in a detail not shown here. Equal entries are not always repeated. Where two headings read alike, the source gives them in different places.
# How the values were obtained:
# Assay type in all cases: in vivo
# [1] = system: Musca domestica (houseflies - adults); test: insecticidal mortality test, contact, cotton wool/sugar; conditions: read-out: grading of mortality, MD
# Protocol: (§1) The activity of the Product was determined using a variety of insect pests. The Product was used in the form of liquid preparations containing 500, 250 or 100 parts per million (ppm) by weight of the Product. The preparations were made by dissolving the Product in acetone and diluting the solutions with water containing 0.01% by weight of a wetting agent sold under the trade name "LlSSAPOL" NX until the liquid preparations contained the required concentration of the Product. "Lissapol" is a Registered Trade Mark.
# (§2) The test procedure adopted with regard to each pest was basically the same and comprised supporting a number of the pests on a medium which was usually a host plant or a foodstuff on which the pests feed, and treating either or both the pests and the medium with the preparations. The mortality of the pests was then assessed at periods usually varying from one to three days after the treatment.
# (§3) The results of the tests are given in Table III for each of the Products, at the rate in parts per million given in the second column as a grading of mortality designated as A, B or C wherein A indicates 80-100% mortality, B indicates 50-79% mortality and C indicates less than 50% mortality.
# (§4) In Table 111 the pest organism used is designated by a letter code and the pests species, the support medium or food, and the type and duration of test is given in Table II.
# [2] = system: Tetranychus urticae (spider mites - adult); test: insecticidal mortality test, contact, French bean leaf; conditions: for mortality at 100 ppm: read-out: grading of mortality, Tua, 100 ppm, 3 days
# Protocol: as §1, §2, §3, §4
# [3] = system: Myzus persicae (aphids); test: insecticidal mortality test, contact, Chinese Cabbage leaf; conditions: 72 h, read-out: grading of mortality, MP
# Protocol: as §1, §2, §3, §4
# [4] = system: Diabrotica balteata (rootworm larvae); test: insecticidal mortality test, residual, filter paper/maize seed; conditions: read-out: grading of mortality, DB
# Protocol: as §1, §2, §3, §4
# [5] = system: Musca domestica (adult females); test: Musca domestica knockdown test; conditions: 1 cm3 of 30 ppm solution in acetone, Kearns and March chamber, 20 adult females, observed over 10 minutes; average of 2 replicates (* single replicate, ** average of 7 tests)
# Protocol: 1 cm³ Of a 30 ppm solution of the test chemical in acetone was sprayed into a Kearns and March chamber containing 20 Musca domestica (adult females). Knockdown was observed over a period of 10 minutes and KT₅₀ and KT₉₀ values (the time taken for 50% and 90% of the insects to be knocked down) were calculated from the observations. The results given in Table V represent average KT values of 2 replicates except where otherwise stated.
# [6] = system: Blattella germanica (adult males); test: Blattella germanica knockdown test; conditions: tests 1 and 2 are repeats; for mortality at 250 ppm / pest or weed control at 250 ppm: Blattella germanica; for mortality at 250 ppm: 48 h, 250 ppm spray, insects held at 25°C and 65% relative humidity for 48 hours, read-out: % MORTALITY 48 hrs; for pest or weed control at 250 ppm: topical, Tetramethrin: mean of 27 observations; for pest or weed control at 250 ppm / % KNOCKDOWN OBSERVED 15 min / % KNOCKDOWN OBSERVED 20 min: 250 ppm in kerosene, 1 cm3 sprayed onto 10 adult males
# Protocol: The test compound was dissolved in acetone (2 cm³) and the solution diluted to a concentration of 250 ppm with kerosene. 1 cm³ Of this preparation was sprayed onto 10 Blattella germanica (adult males) held in a netted plastic pot in a Burkhard potter Tower. Assessment of knockdown was performed at intervals of 5 minutes up to a total of 20 minutes. On removal from the Burkhard Potter Tower, the insects were held at 25°C and 65% relative humidity for 48 hours, and an assessment of mortality performed. Each test was repeated.
# In some tests, additional knockdown assessment was performed at intervals of 1, 2, 3 and 4 minutes, and KT₅₀ and KT₉₀ values determined (the time taken, in minutes, to knockdown 50% and 90% respectively of test insects).
# [7] = system: Spodoptera exigua (lesser army worm - larvae); test: insecticidal mortality test, residual, cotton leaf; conditions: read-out: grading of mortality, SP
# Protocol: as §1, §2, §3, §4
# [8] = system: Heliothis virescens (tobacco budworm - larvae); test: insecticidal mortality test, residual, cotton leaf; conditions: read-out: grading of mortality, HV
# Protocol: as §1, §2, §3, §4
# [9] = system: Nephotettix cincticeps (green leaf hopper - nymphs); test: insecticidal mortality test, contact, rice plant; conditions: 100 ppm, contact, rice plant, read-out: grading of mortality, NC
# Protocol: as §1, §2, §3, §4
# [10] = system: Blattella germanica (cockroach nymphs); test: insecticidal mortality test, residual, plastic pot; conditions: 72 h, read-out: grading of mortality, BG
# Protocol: as §1, §2, §3, §4
# [11] = system: Nilaparvata lugens; test: insecticidal mortality test, Nephotettix cincticeps replaced by Nilaparvata lugens; conditions: 72 h, read-out: grading of mortality, NC with Nilaparvata lugens
# Protocol: as §1, §2, §3, §4
# [12] = 72 h, 100 ppm, residual, cotton leaf, 3 days
# [13] = 10 min, 10 min, read-out: % KNOCKDOWN OBSERVED 10 min
# [14] = Nilaparvata lugens, in Oryza sativa
Compound,mortality at 100 ppm ([1]; 24 h) [%],"mortality at 100 ppm ([2]; Tetranychus urticae, 72 h) [%]",mortality at 100 ppm [3] [%],mortality at 100 ppm ([4]; 72 h) [%],KT₅₀ [5],KT₉₀ [5],mortality at 250 ppm [6] [%],mortality at 100 ppm ([7]; 72 h) [%],"mortality at 100 ppm [8, 12] [%]","mortality at 100 ppm ([9]; 72 h, 3 days) [%]",mortality at 100 ppm [10] [%],"pest or weed control at 250 ppm [6, 13] [%]",% KNOCKDOWN OBSERVED 15 min [6],further results
"CC1(C)C(C=C(Cl)C(F)(F)F)C1C(=O)OCc1c(F)c(F)c(CCl)c(F)c1F (racemic) [Product III, 4-(chloromethyl)-2,3,5,6-tetrafluorobenzyl (1RS,cis)-3-(Z-2-chloro-3,3,3-trifluoroprop-1-en-1-yl)-2,2-dimethylcyclopropanecarboxylate]",< 50,80 to 100,80 to 100,80 to 100,10 min,10 min,100,80 to 100,80 to 100,80 to 100,80 to 100,–,–,"pest or weed control at 250 ppm ([6]; 5 min, 5 min, read-out: % KNOCKDOWN OBSERVED 5 min): 100%"
"CC1(C)C(C=C(Cl)C(F)(F)F)C1C(=O)OCc1c(F)c(F)c(COC=O)c(F)c1F (racemic) [Product IX, 4-(Formyloxymethyl)-2,3,5,6-tetrafluoromethyl (1RS, trans)-3-(Z-2-chloro-3,3,3-trifluoroprop-1-en-1-yl)-2,2-dimethylcyclopropanecarboxylate]",–,–,80 to 100,–,10* mins,10* mins,100,–,–,–,80 to 100,100,–,"mortality at 100 ppm ([1]; 72 h): < 50%; grading of mortality, Tua ([2]; 100 ppm, 3 days, listed as IX, 4320 min): C (C indicates less than 50% mortality); mortality at 100 ppm ([4]; 48 h): < 50%; mortality at 100 ppm ([7]; 48 h): 80 to 100%; mortality at 100 ppm ([8]; 48 h, 100 ppm, residual, cotton leaf, test duration of 2 days (footnote +)): 80 to 100%; mortality at 100 ppm ([9]; 48 h, test duration of 2 days (footnote +)): 80 to 100%"
"CC1(C)C(C=C(Cl)C(F)(F)F)C1C(=O)OCc1c(F)c(F)c(CC#N)c(F)c1F (racemic) [Product XII, 4-(Cyanomethyl)-2,3,5,6-tetrafluorobenzyl (1RS, cis)-3-(Z-2-chloro-3,3,3-trifluoroprop-1-en-1-yl)-2,2-dimethylcyclopropanecarboxylate]",80 to 100,80 to 100,< 50,80 to 100,6.8 min,9.8 min,100,80 to 100,80 to 100,80 to 100,80 to 100,100,–,–
"CC1(C)C(C=C(Cl)C(F)(F)F)C1C(=O)OCc1c(F)c(F)c(CN=[N+]=[N-])c(F)c1F (racemic) [Product X, 4-(Azidomethyl)-2,3,5,6-tetrafluorobenzyl (1RS, cis)-3-(Z-2-chloro-3,3,3-trifluoroprop-1-en-1-yl)-2,2-dimethylcyclopropanecarboxylate]",80 to 100,80 to 100,80 to 100,80 to 100,5.0* mins,9.0* mins,100,80 to 100,80 to 100,80 to 100,80 to 100,70,100%,–
"CC(C)=NNc1c(F)c(F)c(COC(=O)[C@@H]2[C@H](/C=C(\Cl)C(F)(F)F)C2(C)C)c(F)c1F (relative stereo) [Product XIII, 4-(prop-2-ylidenehydrazino)-2,3,5,6-tetrafluorobenzyl (1RS, cis)-3-(Z-2-chloro-3,3,3-trifluoroprop-1-en-1-yl)-2,2-dimethylcyclopropanecarboxylate]",80 to 100,< 50,50 to 79,80 to 100,–,–,–,–,–,–,80 to 100,–,–,"mortality at 100 ppm ([8]; 72 h): 80 to 100%; mortality at 100 ppm [11, 14]: 80 to 100%"
"CC1(C)C(C=C(Cl)C(F)(F)F)C1C(=O)OCc1c(F)c(F)c(CF)c(F)c1F (racemic) [Product II, 4-(Fluoromethyl)-2,3,5,6-tetrafluorobenzyl (1RS,cis)-3-(Z-2-chloro-3,3,3-trifluoroprop-1-en-1-yl)-2,2-dimethyl-cyclopropanecarboxylate]",80 to 100,< 50,80 to 100,80 to 100,2.7 min,5.0 min,–,80 to 100,80 to 100,–,80 to 100,60,90% and 100%,"% KNOCKDOWN OBSERVED 20 min [6]: 90%; mortality at 100 ppm [11, 14]: 80 to 100%"
"C#Cc1c(F)c(F)c(COC(=O)C2C(C)(C)C2(C)C)c(F)c1F [Product XVII, 4-Ethynyl-2,3,5,6-tetrafluorobenzyl-2,2,3,3-tetramethylcyclopropanecarboxylate]",–,–,–,–,4.1 min,7.5 min,–,–,–,–,–,–,–,"mortality at 500 ppm ([1]; 24 h, 500 ppm, contact, cotton wool/sugar, 1 day): 80 to 100%; mortality at 500 ppm ([2]; Tetranychus urticae, 72 h, 500 ppm, 3 days, read-out: grading of mortality, Tua): 80 to 100%; mortality at 500 ppm ([3]; 500 ppm, contact, Chinese Cabbage leaf, 3 days): < 50%; mortality at 500 ppm ([4]; 72 h, 500 ppm, residual, filter paper/maize seed, 3 days): < 50%; mortality at 500 ppm ([7]; 72 h, 500 ppm, residual, cotton leaf, 3 days): 80 to 100%; mortality at 500 ppm ([8]; 72 h): 80 to 100%; mortality at 500 ppm ([10]; 500 ppm, residual, plastic pot, 3 days): 80 to 100%; mortality at 500 ppm ([11]; 500 ppm, footnote *: Nephotettix cincticeps replaced by Nilaparvata lugens, otherwise as NC test (contact, rice plant, 3 days)): 80 to 100%"
"CC(C)=NNc1c(F)c(F)c(COC(=O)[C@@H]2[C@H](C=C(Cl)Cl)C2(C)C)c(F)c1F (relative stereo) [Product XV, 4-(prop-2-ylidenehydrazino)-2,3,5,6-tetrafluorobenzyl (1RS, cis)-3-(2,2-dichloroethenyl)-2,2-dimethyl-cyclopropanecarboxylate]",–,–,–,–,–,–,–,–,–,–,–,–,–,"mortality at 500 ppm ([1]; 24 h): 80 to 100%; mortality at 500 ppm [3]: 80 to 100%; mortality at 500 ppm ([4]; 72 h): 80 to 100%; mortality at 500 ppm ([8]; 72 h): 80 to 100%; mortality at 500 ppm [10]: 80 to 100%; mortality at 500 ppm [11, 14]: 80 to 100%"
"CC(=O)OCc1c(F)c(F)c(COC(=O)C2C(C=C(Cl)C(F)(F)F)C2(C)C)c(F)c1F (racemic) [Product VI, 4-(Acetoxymethyl)-2,3,5,6-tetrafluorobenzyl (1RS,cis)-3-(Z-2-chloro-3,3,3-trifluoroprop-1-en-1-yl)-2,2-dimethylcyclopropanecarboxylate]",80 to 100,50 to 79,80 to 100,80 to 100,7.0 min,7.7* mins,100,80 to 100,80 to 100,80 to 100,80 to 100,30,70%,% KNOCKDOWN OBSERVED 20 min [6]: 100%
